# What was measured:
# FAAH = molecular target: T1, FAAH (Rattus norvegicus, UniProt P97612); assay: Inhibition of FAAH catalysed [3H]-AEA hydrolysis; format: biochemical; conditions: for IC50: FAAH catalysed [3H]-AEA hydrolysis, read-out: pI50 (converted)
# T1 sequence (P97612 1-579): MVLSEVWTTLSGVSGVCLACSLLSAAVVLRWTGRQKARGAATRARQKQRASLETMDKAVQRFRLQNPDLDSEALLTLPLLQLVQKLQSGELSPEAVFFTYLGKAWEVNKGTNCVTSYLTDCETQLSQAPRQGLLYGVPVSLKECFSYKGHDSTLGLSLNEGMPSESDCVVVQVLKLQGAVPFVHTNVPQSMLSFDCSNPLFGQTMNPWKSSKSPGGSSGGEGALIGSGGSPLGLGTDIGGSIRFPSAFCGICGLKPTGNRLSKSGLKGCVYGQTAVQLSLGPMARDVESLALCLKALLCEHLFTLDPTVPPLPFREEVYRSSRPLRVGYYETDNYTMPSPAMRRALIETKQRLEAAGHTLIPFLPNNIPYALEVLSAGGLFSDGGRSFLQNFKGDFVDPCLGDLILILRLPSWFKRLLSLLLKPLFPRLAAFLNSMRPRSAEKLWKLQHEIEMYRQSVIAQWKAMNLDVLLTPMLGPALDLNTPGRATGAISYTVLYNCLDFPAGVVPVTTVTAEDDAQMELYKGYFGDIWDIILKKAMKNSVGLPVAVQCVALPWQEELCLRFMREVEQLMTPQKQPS
# Experimental: (§1) The FAAH inhibitory compound that we are investigating is an analogue of PEA called palmitoylallylamide (L-29). It was developed by Dr Didier Lambert and team at the Unité de Chimie pharmaceutique et de Radiopharmacie, Universite catholique de Louvain, Brussels, Belgium. The capacity of L-29 to inhibit FAAH was calculated by measuring the ability of the compound to inhibit FAAH catalysed [^3H]-AEA hydrolysis (maximum inhibition and pI50 calculated). […] Binding to CB1 and CB2 receptors was also calculated by measuring the displacement of radioactive [^3H]-CP55,940 from a cell line transfected with CB1 receptors and radioactive [^3H]-WIN55,212-2 from a cell line transfected with CB2 receptors.
# CB1 receptors = molecular target: T2, CB1 receptors (Homo sapiens, UniProt P21554); assay: Displacement of [3H]-CP55,940 from a cell line transfected with CB1 receptors; format: binding; conditions: concentration of 10 μM
# T2 construct: expressed in transfected cells
# T2 sequence (P21554 whole entry): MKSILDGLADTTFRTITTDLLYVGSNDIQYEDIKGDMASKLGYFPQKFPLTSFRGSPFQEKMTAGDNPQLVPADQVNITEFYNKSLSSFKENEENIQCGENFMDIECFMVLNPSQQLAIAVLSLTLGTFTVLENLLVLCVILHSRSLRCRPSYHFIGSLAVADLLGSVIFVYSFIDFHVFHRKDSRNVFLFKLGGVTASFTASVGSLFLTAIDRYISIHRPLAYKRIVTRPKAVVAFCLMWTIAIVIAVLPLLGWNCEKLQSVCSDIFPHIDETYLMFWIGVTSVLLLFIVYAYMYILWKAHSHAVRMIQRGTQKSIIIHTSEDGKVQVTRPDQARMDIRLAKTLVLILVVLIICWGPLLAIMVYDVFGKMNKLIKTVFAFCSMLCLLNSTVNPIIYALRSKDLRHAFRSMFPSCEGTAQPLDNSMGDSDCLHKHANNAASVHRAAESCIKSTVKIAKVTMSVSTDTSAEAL
# Experimental: as §1
# CB2 receptors = molecular target: T3, CB2 receptors (Homo sapiens, UniProt P34972); assay: Displacement of [3H]-WIN55,212-2 from a cell line transfected with CB2 receptors; format: binding; conditions: concentration of 10 μM
# T3 construct: expressed in transfected cells
# T3 sequence (P34972 whole entry): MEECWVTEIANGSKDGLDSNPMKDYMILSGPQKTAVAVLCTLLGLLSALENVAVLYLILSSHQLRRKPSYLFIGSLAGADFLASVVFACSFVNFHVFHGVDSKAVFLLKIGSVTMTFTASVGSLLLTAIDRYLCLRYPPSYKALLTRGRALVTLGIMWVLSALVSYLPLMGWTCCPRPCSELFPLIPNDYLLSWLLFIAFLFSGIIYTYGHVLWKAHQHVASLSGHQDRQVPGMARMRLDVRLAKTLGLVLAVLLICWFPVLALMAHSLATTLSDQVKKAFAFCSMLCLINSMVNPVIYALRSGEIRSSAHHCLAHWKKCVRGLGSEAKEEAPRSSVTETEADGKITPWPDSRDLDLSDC
# Experimental: as §1
# [1] = system: formalin-evoked pain in the rat; assay: Formalin test (CPS-WST(0,1,2) pain score); format: in vivo
# Experimental: All experiments conformed with British Home Office regulations. Male Wistar rats weighing 230-290 g were obtained from B&K. Animals were housed in group cages and maintained on a 12-hour light-dark cycle with ad libitum access to food and water. Each animal was used in one experiment only.
# L-29 was a gift from D Lambert (see FIG. 1 for chemical structure). SR1 and SR2 were a gift from Sanofi and capsazepine was purchased from Tocris. All drugs were dissolved in 40% dimethyl sulphoxide (DMSO) and saline.
# Rats were randomised into seven groups. Investigator JB carried out the dosing of the animals to conform with Home Office regulations, while investigator HJ carried out all other duties including scoring the behavioural test, she was blinded to the drugs given. All animals were acclimatised to the testing environment for at least 30 min prior to the experiment beginning. Each animal received a first intraperitoneal (i.p.) injection of either vehicle or antagonist and five minutes later a second i.p. injection of either vehicle or L-29. […] 10 min later all the animals received a formalin injection.
# 50 μl of 2.5% formalin was injected subcutaneously into the dorsum of the right hind paw via a 27G needle. The paw was then marked with permanent ink. The animal was immediately replaced in the observation chamber, a clear plexiglass box measuring 23 cm×18 cm×14 cm, with a mirror positioned underneath at 45° to allow an unobstructed view of the paw. Observations began as the rats were placed in the box and continued for 60 min. Their behaviour was rated according to the Composite Pain Score, Weighted Scores Technique (CPS-WST (0,1,2)), a validated pain behaviour scoring system for the rat formalin test (Watson et al 1997). The amount of time spent in each of 2 behavioural categories was measured for each consecutive 5 min period within the hour scored. Category 1, the injected paw is elevated and not in contact with any surface and category 2, the injected paw is licked, bitten or shaken. A weighted score was then obtained for each 5 min period and for phase 1 (0-15 min) and phase 2 (15-60 min), by using the formula below:
# CPS-WST=(1×time in category 1)+(2×time spent in category 2)
# Data was analysed using the one-way ANOVA test followed by Dunnett's test using the SigmaStat 2.3 computer package.
# [2] = system: rats rendered neuropathic by partial sciatic nerve ligation; assay: Thermal hyperalgesia (Hargreaves' device), partial sciatic nerve ligation model; format: in vivo, rat
# Experimental: (§2) Male Wistar rats, weighing 250-350 g (mean 300 g) were housed at a constant temperature under a 14:10 light/dark cycle, with free access to food and water.
# (§3) The animals were randomised into four experimental groups, with six animals in each group:
# (§4) Group B. L-29 in a DMSO Vehicle in Three i.p. Doses: 0.1 mgkg^−1, 1 mgkg^−1, 10 mgkg^−1
# (§5) In this study, six animals were allocated to each dose group and baseline limb withdrawal thresholds were recorded for each animal at t=0. This was immediately followed by the ip. administration of L-29 solution.
# (§6) Limb withdrawal thresholds to all three modalities were recorded at t=0. Each animal then received i.p. injection of the antagonist in a 40% DMSO and saline solution, immediately followed by the administration of L-29 at a dose of 1 mgkg^−1 via the same route. Sensory testing resumed and limb withdrawal thresholds were recorded over the course of the experiment as described.
# (§7) Following the original description for partial sciatic nerve ligation by Seltzer et al.^2, surgery was performed in equal number. Under inhalational anaesthesia using isoflurane and nitrous oxide, the left sciatic nerve was exposed at upper-thigh level and the dorsal third—half of the sciatic nerve tightly ligated with a 7-0 silk suture at a site just distal to the point at which the posterior biceps semitendinosus nerve branches off the sciatic nerve. Haemostasis was confirmed and the wound then closed with muscle and skin sutures and a small volume of 0.5% bupivicaine administered subcutaneously. A strict aseptic technique was maintained throughout. The animal was then recovered and returned to its housing environment and a post-operative check conducted the following day. See FIG. 12 for full description and protocol.
# Behavioural tests included simple reflex withdrawal to mechanical, thermal and cold stimuli. […] Baseline sensory thresholds were measured pre-operatively on the day of surgery and on post-operative day eight. […] Sensory thresholds were recorded at time (t) 0, 20, 40, 60 and 80 minutes post drug administration.
# Thermal hyperalgesia is assessed using a noxious infrared heat stimulus applied to the plantar surface of both hind paws as described by Hargreaves et al.^4 Paw withdrawal thresholds to a focused beam of radiant heat at a constant temperature of 46° C. and infrared intensity (of twenty for rats and thirty for mice) is measured. […] Sampling is repeated five times to each paw with three minutes between testing and a mean withdrawal threshold is calculated.
# (§8) Statistical significance was determined for neuropathy by the paired t-test and for drug effects by the one-way ANOVA (Dunnett's test) (compared to post-operative values), both taking p<0.05 as statistically significant.
# [3] = system: rats rendered neuropathic by partial sciatic nerve ligation; assay: Mechanical allodynia (electronic von Frey), partial sciatic nerve ligation model; format: in vivo, rat
# Experimental: as §2, §3, §4, §5, §6, §7
# Behavioural tests included simple reflex withdrawal to mechanical, thermal and cold stimuli. Before commencing experiments, animals were allowed to acclimatise to the testing environment for at least 15 minutes until exploratory behaviour had ceased. In order to minimise bias, the experiment to be conducted was randomised (according to a predetermined random number table—see table 2) on the day of testing and the drug doses were drawn up and given by a separate investigator to the one scoring the behavioural tests who was blinded to the drugs given. Baseline sensory thresholds were measured pre-operatively on the day of surgery and on post-operative day eight. […] Sensory thresholds were recorded at time (t) 0, 20, 40, 60 and 80 minutes post drug administration. […]
# as §8
# [4] = system: rats rendered neuropathic by partial sciatic nerve ligation; assay: Cold allodynia (acetone drop), partial sciatic nerve ligation model; format: in vivo, rat; conditions: for positive response to cold stimulus (declined from 100%): between 40-60 minutes post drug
# WIN2 induced catalepsy = conditions: 1 mg/kg i.p.; cited from earlier work
# [5] = antagonist 1 mgkg^−1 i.p. + L-29 1 mgkg^−1 i.p.
smiles,measurement,setting,value
"C=CCNC(=O)CCCCCCCCCCCCCCC [L-29, N-(2-propenyl)hexadecanamide]",maximum inhibition of FAAH catalysed [3H]-AEA hydrolysis,FAAH,67%
same,IC50,FAAH,3.39 µM
same,"displacement of [3H]-CP55,940 in the CB1 assay",CB1 receptors,13.3%
same,"displacement of [3H]-WIN55,212-2 in the CB2 assay",CB2 receptors,7.8%
same,pain behaviour v control,[1]; 0.1 mg/kg i.p.,not significantly different from control
same,pain behaviour v control (P<0.05),[1]; 1 mg/kg i.p.,significantly attenuated pain behaviour
same,pain behaviour v control (P<0.05),[1]; 10 mg/kg i.p.,significantly attenuated pain behaviour
same,pain behaviour in both phases of the formalin test,"[1]; 0.1, 1 and 10 mg/kg i.p., 10 min before 2.5% formalin s.c.",dose-dependently inhibited
same,attenuation of thermal hyperalgesia,[2]; 0.1 mgkg^−1 i.p.,only at 40 minutes
same,attenuation of thermal hyperalgesia,[2]; 1 mgkg^−1 i.p.,attenuated later between 40 and 60 minutes post drug injection
same,attenuation of thermal hyperalgesia,"[2]; 10 mgkg^−1 i.p., between 20 and 60 minutes post drug",Attenuation of thermal hyperalgesia was greatest
same,reversal of mechanical allodynia,[3]; 0.1 mgkg^−1 i.p.,only at 80 minutes post i.p drug administration
same,reversal of mechanical allodynia (mechanical sensory thresholds),"[3]; 1 mgkg^−1 i.p., at 20 minutes and 60 minutes post drug",significant increase in mechanical sensory thresholds
same,reversal of mechanical allodynia,[3]; 10 mgkg^−1 i.p.,No effect on mechanical allodynia
same,decline in positive response to cold stimulus,"[4]; 0.1 mgkg^−1 i.p., between 20-40 minutes",decline by almost half
same,positive response to cold stimulus (declined from 100%),[4]; 1 mgkg^−1 i.p.,50%
same,positive response to cold stimulus (declined from 100%),[4]; 10 mgkg^−1 i.p.,50%
same,reversal of cold allodynia,"[4]; all doses (0.1, 1, 10 mgkg^−1 i.p.)",did not yield a statistically significant reversal of cold allodynia
"CCCCCCCCCCCCCCCC(=O)NCCO [PEA, Palmitoylethanolamide, reference compound]",maximum inhibition of FAAH catalysed [3H]-AEA hydrolysis,FAAH,78%
same,IC50,FAAH,5.01 µM
same,"displacement of [3H]-CP55,940 in the CB1 assay",CB1 receptors,23.8%
same,"displacement of [3H]-WIN55,212-2 in the CB2 assay",CB2 receptors,13.9%
"Cc1c(C(=O)NN2CCCCC2)nn(-c2ccc(Cl)cc2Cl)c1-c1ccc(Cl)cc1 [SR1, reference compound]",effect of receptor antagonist on antinociceptive effect of L-29,"[1]; phase 2 (15-60 min), antagonist 1 mg/kg i.p. prior to 1 mg/kg L-29",reverses the antinociceptive effect of L-29
same,effect of co-administered antagonist on anti-hyperalgesic effect of L-29 (thermal),[2]; [5],appeared not to prevent the anti-hyperalgesic and anti-allodynic effects
same,effect of co-administered antagonist on anti-allodynic effect of L-29 (mechanical),[3]; [5],appeared not to prevent the anti-hyperalgesic and anti-allodynic effects
same,cold allodynia on co-administration of antagonist and L-29,[4]; [5],significant reduction in % positive response to cold stimulus
same,time to significant antagonism of WIN2 induced catalepsy,WIN2 induced catalepsy,≤ 15 min
"Oc1cc2c(cc1O)CN(C(=S)NCCc1ccc(Cl)cc1)CCC2 [capsazepine, reference compound]",effect of receptor antagonist on antinociceptive effect of L-29,"[1]; either phase, SR2 1 mg/kg or capsazepine 10 mg/kg i.p. prior to 1 mg/kg L-29",do not significantly reverse the antinociceptive effect of L-29

# — patent US20080269325A1, “Methods to Relieve Pain” (Imperial Innovations Limited, priority 2004, published 2008)
